What all share (type): functional
For assay [1], the system named is Enterobacteriaceae. Put plainly: Antimicrobial activity against Aerobacter 2826 by agar dilution method.
Another assay has as its system Proteus vulgaris. In words: Antimicrobial activity against Proteus vulgaris 2829 by agar dilution method.
Another assay relates to Morganella morganii. Put plainly: Antimicrobial activity against Proteus morganii 2834 by agar dilution method.
The subject of another assay is Klebsiella. Put plainly: Antimicrobial activity against Klebsiella 2882 by agar dilution method.
For the next assay, the system named is Enterococcus. In words: Antimicrobial activity against Enterococcus 2862 by agar dilution method.
A further assay relates to Providencia. In words: Antimicrobial activity against Providencia 2851 by agar dilution method.
The subject of the next assay is Pseudomonas. In words: Antimicrobial activity against Pseudomonas by agar dilution method.
The next assay concerns Escherichia coli. Put plainly: Antimicrobial activity against Escherichia coli 2884 by agar dilution method.
In the next assay the test system is Serratia. Put plainly: Antimicrobial activity against Serratia 2852 by agar dilution method.
A further assay deals with Staphylococcus aureus. In words: Antimicrobial activity against Staphylococcus aureus 2865 by agar dilution method.
The subject of the next assay is Proteus mirabilis. Put plainly: Antimicrobial activity against Proteus mirabilis 2830 by agar dilution method.
In a further assay the test system is Enterobacter. In words: Antimicrobial activity against Enterobacter 2902 by agar dilution method.
Assay [2] concerns Enterobacteriaceae. In words: Antimicrobial activity against Aerobacter 2828 by agar dilution method.
The next assay has as its system Streptococcus pyogenes. Put plainly: Antimicrobial activity against Streptococcus pyogenes 3124 by agar dilution method.

In brackets after ≈: the same amount, converted by molar mass. Where only a bound is given, the exact number is not on record here.

Turning to `Cn1nnnc1SCC1=C(C(=O)O)N2C(=O)[C@@H](NC(=O)C(O)c3ccccc3)[C@H]2CC1` (mixture of isomers), the MIC is 1.56 µg/mL in the assay on Enterobacteriaceae [1]; 6.25 µg/mL against Proteus vulgaris; 6.25 µg/mL in the assay with Morganella morganii; 1.56 µg/mL in the assay with Klebsiella; over 100 µg/mL against Enterococcus; 6.25 µg/mL with Providencia. The MIC was over 100 µg/mL in the assay with Pseudomonas; 1.56 µg/mL against Escherichia coli; over 100 µg/mL in the assay on Serratia; 1.56 µg/mL against Staphylococcus aureus; 25 µg/mL against Proteus mirabilis; over 100 µg/mL against Enterobacter. For the same compound, the MIC against Enterobacteriaceae [2] was over 100 µg/mL; in the assay with Streptococcus pyogenes, 3.12 µg/mL.
Regarding `Cn1nnnc1SCC1=C(C(=O)O)N2C(=O)[C@@H](NC(=O)[C@H](O)c3ccccc3)[C@H]2OC1` (racemic), the MIC is under 0.39 µg/mL against Enterobacteriaceae [1]; 1.28 µg/mL (≈ 2.87 µM) against Proteus vulgaris; 1.28 µg/mL (≈ 2.87 µM) against Morganella morganii; 0.78 µg/mL (≈ 1.75 µM) with Klebsiella; 25 µg/mL (≈ 56 µM) in the assay on Enterococcus; 2.56 µg/mL (≈ 5.73 µM) with Providencia. Further, the MIC in the assay on Pseudomonas is over 100 µg/mL; against Escherichia coli, under 0.39 µg/mL; with Serratia, over 100 µg/mL; against Staphylococcus aureus, under 0.39 µg/mL; in the assay on Proteus mirabilis, 100 µg/mL (≈ 224 µM); with Enterobacter, 12.5 µg/mL (≈ 28 µM). Also, the MIC against Enterobacteriaceae [2] is 25 µg/mL (≈ 56 µM); in the assay with Streptococcus pyogenes, under 0.39 µg/mL.
With `CO[C@@]1(NC(=O)Cc2cccs2)C(=O)N2C(C(=O)O)=C(COC(N)=O)CC[C@@H]21` (racemic), the MIC against Enterobacteriaceae [1] was 12.5 µg/mL (≈ 30.5 µM); in the assay with Proteus vulgaris, 6.25 µg/mL (≈ 15.3 µM); in the assay with Morganella morganii it was 6.25 µg/mL (≈ 15.3 µM); in the assay with Klebsiella it was 6.25 µg/mL (≈ 15.3 µM); against Enterococcus, over 100 µg/mL; in the assay with Providencia, 6.25 µg/mL (≈ 15.3 µM). In addition, the MIC is over 100 µg/mL in the assay on Pseudomonas; 12.5 µg/mL (≈ 30.5 µM) in the assay on Escherichia coli; 50 µg/mL (≈ 122 µM) with Serratia; 6.25 µg/mL (≈ 15.3 µM) against Staphylococcus aureus; 12.5 µg/mL (≈ 30.5 µM) with Proteus mirabilis; over 100 µg/mL with Enterobacter. The MIC against Enterobacteriaceae [2] was over 100 µg/mL; against Streptococcus pyogenes it was 6.25 µg/mL (≈ 15.3 µM).
On to `Cn1nnnc1SCC1=C(C(=O)O)N2C(=O)[C@@H](NC(=O)[C@H](O)c3ccccc3)[C@H]2SC1` [CEFAMANDOLE], for which the MIC was under 0.39 µg/mL against Enterobacteriaceae [1]; 1.56 µg/mL (≈ 3.37 µM) in the assay with Proteus vulgaris; 6.25 µg/mL (≈ 13.5 µM) with Morganella morganii; 1.56 µg/mL (≈ 3.37 µM) in the assay on Klebsiella; 50 µg/mL (≈ 108 µM) against Enterococcus; 3.12 µg/mL (≈ 6.75 µM) in the assay on Providencia. Further, the MIC in the assay with Pseudomonas is over 100 µg/mL; against Escherichia coli it was under 0.39 µg/mL; against Serratia, over 100 µg/mL; against Staphylococcus aureus, under 0.39 µg/mL; against Proteus mirabilis it was 6.25 µg/mL (≈ 13.5 µM); with Enterobacter it was 50 µg/mL (≈ 108 µM). Further, the values for the MIC against Enterobacteriaceae [2] and with Streptococcus pyogenes were 50 µg/mL (≈ 108 µM) and under 0.39 µg/mL, respectively.
As for `CO[C@@]1(NC(=O)Cc2cccs2)C(=O)N2C(C(=O)O)=C(COC(N)=O)CS[C@@H]21` [CEFOXITIN], the minimum inhibitory concentration (MIC) was 0.78 µg/mL (≈ 1.82 µM) against Enterobacteriaceae [1]; under 0.39 µg/mL against Proteus vulgaris; 6.25 µg/mL (≈ 14.6 µM) against Morganella morganii; 3.12 µg/mL (≈ 7.3 µM) with Klebsiella; over 100 µg/mL with Enterococcus; 1.56 µg/mL (≈ 3.65 µM) with Providencia. The MIC against Pseudomonas is over 100 µg/mL; against Escherichia coli it was 1.56 µg/mL (≈ 3.65 µM); against Serratia it was 25 µg/mL (≈ 58.5 µM); with Staphylococcus aureus, 1.56 µg/mL (≈ 3.65 µM); with Proteus mirabilis it was 1.56 µg/mL (≈ 3.65 µM); against Enterobacter, over 100 µg/mL. The figures for the MIC against Enterobacteriaceae [2] and with Streptococcus pyogenes were over 100 µg/mL and 0.78 µg/mL (≈ 1.82 µM), respectively.

Source of the values: ChEMBL document CHEMBL3244022, “Total syntheses of (+/-)-1-carbacefoxitin and -cefamandole and (+/-)-1-oxacefamandole” (1977).
